{"source": "patent US20260217701A1", "about": "“SELECTIVE BET INHIBITORS AND USES THEREOF” (Tay Therapeutics Limited, priority 2022, published 2026)", "test_system": "imiquimod-induced psoriasis", "test": "Imiquimod-induced psoriasis model", "assay_type": "in vivo, mice", "parameters": "Spleen Weight / Spleen Weight Ratio: unit not given here", "conditions": "for Mean scores of the presence of erythema on the skin of animals at the area of induction of psoriasis / Mean scores of the presence of induration on the skin of animals at the area of induction of psoriasis / Mean scores of the presence of peeling on the skin of animals at the area of induction of psoriasis: mean ± SEM", "summary_of_the_method": "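Mice given topical imiquimod (5% cream) daily on depilated backs Days 1–14; Compound A in 5% DMSO/40% PEG-400/55% saline from Day 8, clobetasol topical as reference. Daily PASI (erythema, induration, peeling, each 0–4, summed) Days 8–15; spleen weight, open-field behaviour, serum IL-1B, IL-6, IL-17, TNF-α, IL-22, IL-23 at Day 15.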", "key": {"[1]": {"conditions": "IMI-psoriasis model, mice, 1 mg/kg, individual animals"}, "[2]": {"conditions": "IMI-psoriasis model, mice, 3 mg/kg, individual animals"}, "[3]": {"conditions": "IMI-psoriasis model, mice, 10 mg/kg, individual animals"}, "[4]": {"conditions": "IMI + 1 mg/kg, D8 (before start of treatment)"}, "[5]": {"conditions": "IMI + 3 mg/kg, D8 (before start of treatment)"}}, "note": "Values joined by “and” are separate entries in the source; they are usually repeats but may differ in a detail not shown here. Identical values can stand only once.", "data": [{"compound": "Cn1cc(-c2ccccc2)c(-c2cn(C)c(=O)c3[nH]c(-c4cnn(C(F)(F)F)c4)cc23)cc1=O", "note": "[Compound A, 6-methyl-4-(1-methyl-2-oxo-5-phenyl-1,2-dihydropyridin-4-yl)-2-(1-(trifluoromethyl)-1H-pyrazol-4-yl)-1,6-dihydro-7H-pyrrolo[2,3-c]pyridin-7-one]", "values": [{"measurement": "Use Enrichment Mean D8-D15", "setting": "IMI-psoriasis model, mean D8-D15, 10 mg/kg, per cage (two animals)", "result": "2.86 and 3.86 and 3.50 and 3.14"}, {"measurement": "Spleen Weight", "setting": "[1]", "result": "219.42 and 202.00 and 212.50 and 233.20 and 220.14 and 227.26 and 202.76 and 213.15"}, {"measurement": "Spleen Weight Ratio", "setting": "[1]", "result": "1394.03 and 1137.39 and 1273.22 and 1367.74 and 1289.63 and 1310.61 and 1176.78 and 1298.90"}, {"measurement": "Spleen Weight", "setting": "[2]", "result": "199.90 and 205.09 and 178.46 and 185.94 and 214.46 and 180.80 and 187.63 and 151.76"}, {"measurement": "Spleen Weight Ratio", "setting": "[2]", "result": "1084.06 and 1245.23 and 967.79 and 1175.35 and 1265.25 and 1069.19 and 1163.24 and 921.43"}, {"measurement": "Spleen Weight", "setting": "[3]", "result": "156.01 and 178.03 and 139.03 and 157.80 and 191.54 and 195.58 and 151.42 and 172.86"}, {"measurement": "Spleen Weight Ratio", "setting": "[3]", "result": "939.82 and 1083.57 and 757.66 and 813.82 and 1075.46 and 1071.08 and 902.92 and 1083.08"}, {"measurement": "cytokine levels (IL-17, IL-22, IL-1β, IL-6, TNF-α, IL-23) relative to vehicle", "setting": "all tested doses", "result": "marked reduction of all cytokines assayed"}, {"measurement": "Spleen Weight Ratio", "setting": "day 15, 1, 3, 10 mg/kg", "result": "dose-dependent decrease"}, {"measurement": "Mean scores of the presence of erythema on the skin of animals at the area of induction of psoriasis", "setting": "[4]", "result": "2.0 ± 0.0"}, {"measurement": "Mean scores of the presence of induration on the skin of animals at the area of induction of psoriasis", "setting": "[4]", "result": "2.6 ± 0.2"}, {"measurement": "Mean scores of the presence of peeling on the skin of animals at the area of induction of psoriasis", "setting": "[4]", "result": "2.6 ± 0.2"}, {"measurement": "Mean scores of the presence of erythema on the skin of animals at the area of induction of psoriasis", "setting": "IMI + 1 mg/kg, D9", "result": "2.0 ± 0.3"}, {"measurement": "Mean scores of the presence of induration on the skin of animals at the area of induction of psoriasis", "setting": "IMI + 1 mg/kg, D9", "result": "2.4 ± 0.2"}, {"measurement": "Mean scores of the presence of peeling on the skin of animals at the area of induction of psoriasis", "setting": "IMI + 1 mg/kg, D9", "result": "2.6 ± 0.2"}, {"measurement": "Mean scores of the presence of erythema on the skin of animals at the area of induction of psoriasis", "setting": "IMI + 1 mg/kg, D10", "result": "1.75 ± 0.2"}, {"measurement": "Mean scores of the presence of induration on the skin of animals at the area of induction of psoriasis", "setting": "IMI + 1 mg/kg, D10", "result": "2.1 ± 0.2"}, {"measurement": "Mean scores of the presence of peeling on the skin of animals at the area of induction of psoriasis", "setting": "IMI + 1 mg/kg, D10", "result": "2.1 ± 0.1"}, {"measurement": "Mean scores of the presence of erythema on the skin of animals at the area of induction of psoriasis", "setting": "IMI + 1 mg/kg, D11", "result": "1.9 ± 0.1"}, {"measurement": "Mean scores of the presence of induration on the skin of animals at the area of induction of psoriasis", "setting": "IMI + 1 mg/kg, D11", "result": "2.0 ± 0.3"}, {"measurement": "Mean scores of the presence of peeling on the skin of animals at the area of induction of psoriasis", "setting": "IMI + 1 mg/kg, D11", "result": "1.9 ± 0.2"}, {"measurement": "Mean scores of the presence of erythema on the skin of animals at the area of induction of psoriasis", "setting": "IMI + 1 mg/kg, D12", "result": "1.5 ± 0.2"}, {"measurement": "Mean scores of the presence of induration on the skin of animals at the area of induction of psoriasis", "setting": "IMI + 1 mg/kg, D12", "result": "1.6 ± 0.2"}, {"measurement": "Mean scores of the presence of peeling on the skin of animals at the area of induction of psoriasis", "setting": "IMI + 1 mg/kg, D12", "result": "1.3 ± 0.2"}, {"measurement": "Mean scores of the presence of erythema on the skin of animals at the area of induction of psoriasis", "setting": "IMI + 1 mg/kg, D13", "result": "0.5 ± 0.2"}, {"measurement": "Mean scores of the presence of induration on the skin of animals at the area of induction of psoriasis", "setting": "IMI + 1 mg/kg, D13", "result": "1.5 ± 0.2"}, {"measurement": "Mean scores of the presence of peeling on the skin of animals at the area of induction of psoriasis", "setting": "IMI + 1 mg/kg, D13", "result": "1.1 ± 0.1"}, {"measurement": "Mean scores of the presence of erythema on the skin of animals at the area of induction of psoriasis", "setting": "IMI + 1 mg/kg, D14", "result": "0.3 ± 0.2"}, {"measurement": "Mean scores of the presence of induration on the skin of animals at the area of induction of psoriasis", "setting": "IMI + 1 mg/kg, D14", "result": "0.9 ± 0.2"}, {"measurement": "Mean scores of the presence of peeling on the skin of animals at the area of induction of psoriasis", "setting": "IMI + 1 mg/kg, D14", "result": "1.0 ± 0.0"}, {"measurement": "Mean scores of the presence of erythema on the skin of animals at the area of induction of psoriasis", "setting": "IMI + 1 mg/kg, D15", "result": "0.0 ± 0.0"}, {"measurement": "Mean scores of the presence of induration on the skin of animals at the area of induction of psoriasis", "setting": "IMI + 1 mg/kg, D15", "result": "0.5 ± 0.2"}, {"measurement": "Mean scores of the presence of peeling on the skin of animals at the area of induction of psoriasis", "setting": "IMI + 1 mg/kg, D15", "result": "0.7 ± 0.2"}, {"measurement": "Mean scores of the presence of erythema on the skin of animals at the area of induction of psoriasis", "setting": "[5]", "result": "1.9 ± 0.1"}, {"measurement": "Mean scores of the presence of induration on the skin of animals at the area of induction of psoriasis", "setting": "[5]", "result": "2.5 ± 0.2"}, {"measurement": "Mean scores of the presence of peeling on the skin of animals at the area of induction of psoriasis", "setting": "[5]", "result": "2.3 ± 0.2"}, {"measurement": "Mean scores of the presence of erythema on the skin of animals at the area of induction of psoriasis", "setting": "IMI + 3 mg/kg, D9", "result": "1.6 ± 0.2"}, {"measurement": "Mean scores of the presence of induration on the skin of animals at the area of induction of psoriasis", "setting": "IMI + 3 mg/kg, D9", "result": "2.6 ± 0.2"}, {"measurement": "Mean scores of the presence of peeling on the skin of animals at the area of induction of psoriasis", "setting": "IMI + 3 mg/kg, D9", "result": "2.5 ± 0.2"}, {"measurement": "Mean scores of the presence of erythema on the skin of animals at the area of induction of psoriasis", "setting": "IMI + 3 mg/kg, D10", "result": "1.4 ± 0.2"}, {"measurement": "Mean scores of the presence of induration on the skin of animals at the area of induction of psoriasis", "setting": "IMI + 3 mg/kg, D10", "result": "2.1 ± 0.1"}, {"measurement": "Mean scores of the presence of peeling on the skin of animals at the area of induction of psoriasis", "setting": "IMI + 3 mg/kg, D10", "result": "2.0 ± 0.2"}, {"measurement": "Mean scores of the presence of erythema on the skin of animals at the area of induction of psoriasis", "setting": "IMI + 3 mg/kg, D11", "result": "1.0 ± 0.0"}, {"measurement": "Mean scores of the presence of induration on the skin of animals at the area of induction of psoriasis", "setting": "IMI + 3 mg/kg, D11", "result": "1.4 ± 0.2"}, {"measurement": "Mean scores of the presence of peeling on the skin of animals at the area of induction of psoriasis", "setting": "IMI + 3 mg/kg, D11", "result": "1.6 ± 0.2"}, {"measurement": "Mean scores of the presence of erythema on the skin of animals at the area of induction of psoriasis", "setting": "IMI + 3 mg/kg, D12", "result": "0.8 ± 0.2"}, {"measurement": "Mean scores of the presence of induration on the skin of animals at the area of induction of psoriasis", "setting": "IMI + 3 mg/kg, D12", "result": "1.4 ± 0.2"}, {"measurement": "Mean scores of the presence of peeling on the skin of animals at the area of induction of psoriasis", "setting": "IMI + 3 mg/kg, D12", "result": "1.4 ± 0.2"}, {"measurement": "Mean scores of the presence of erythema on the skin of animals at the area of induction of psoriasis", "setting": "IMI + 3 mg/kg, D13", "result": "0.3 ± 0.2"}, {"measurement": "Mean scores of the presence of induration on the skin of animals at the area of induction of psoriasis", "setting": "IMI + 3 mg/kg, D13", "result": "0.6 ± 0.2"}, {"measurement": "Mean scores of the presence of peeling on the skin of animals at the area of induction of psoriasis", "setting": "IMI + 3 mg/kg, D13", "result": "0.9 ± 0.1"}, {"measurement": "Mean scores of the presence of erythema on the skin of animals at the area of induction of psoriasis", "setting": "IMI + 3 mg/kg, D14", "result": "0.3 ± 0.2"}, {"measurement": "Mean scores of the presence of induration on the skin of animals at the area of induction of psoriasis", "setting": "IMI + 3 mg/kg, D14", "result": "0.3 ± 0.2"}, {"measurement": "Mean scores of the presence of peeling on the skin of animals at the area of induction of psoriasis", "setting": "IMI + 3 mg/kg, D14", "result": "0.3 ± 0.2"}]}]}
